Measured values from US20220249457A1, “METHOD OF MODULATING RIBONUCLEOTIDE REDUCTASE” (CASE WESTERN RESERVE UNIVERSITY, priority 2019, published 2022).

Columns and labels:
hRRM1 = target: T1, hRRM1 (Homo sapiens, UniProt P23921); assay: hRRM1 enzyme activity inhibition (RR radioactivity assay, boronate chromatography); type: biochemical; parameters: key: Compounds which are found to have extremely high potency are classified as “****”; Compounds which are found to have very high potency of protein synthesis are classified as “***”; conditions: potency ranking by minimum concentration required to inhibit enzyme activity; six concentrations 1-100 μM incubated with hRRM1 30 minutes, diluted by a factor of 5
T1 construct: made in house; host or cells: E. coli BL21 DE3 (RIL)
T1 sequence (P23921 1-792): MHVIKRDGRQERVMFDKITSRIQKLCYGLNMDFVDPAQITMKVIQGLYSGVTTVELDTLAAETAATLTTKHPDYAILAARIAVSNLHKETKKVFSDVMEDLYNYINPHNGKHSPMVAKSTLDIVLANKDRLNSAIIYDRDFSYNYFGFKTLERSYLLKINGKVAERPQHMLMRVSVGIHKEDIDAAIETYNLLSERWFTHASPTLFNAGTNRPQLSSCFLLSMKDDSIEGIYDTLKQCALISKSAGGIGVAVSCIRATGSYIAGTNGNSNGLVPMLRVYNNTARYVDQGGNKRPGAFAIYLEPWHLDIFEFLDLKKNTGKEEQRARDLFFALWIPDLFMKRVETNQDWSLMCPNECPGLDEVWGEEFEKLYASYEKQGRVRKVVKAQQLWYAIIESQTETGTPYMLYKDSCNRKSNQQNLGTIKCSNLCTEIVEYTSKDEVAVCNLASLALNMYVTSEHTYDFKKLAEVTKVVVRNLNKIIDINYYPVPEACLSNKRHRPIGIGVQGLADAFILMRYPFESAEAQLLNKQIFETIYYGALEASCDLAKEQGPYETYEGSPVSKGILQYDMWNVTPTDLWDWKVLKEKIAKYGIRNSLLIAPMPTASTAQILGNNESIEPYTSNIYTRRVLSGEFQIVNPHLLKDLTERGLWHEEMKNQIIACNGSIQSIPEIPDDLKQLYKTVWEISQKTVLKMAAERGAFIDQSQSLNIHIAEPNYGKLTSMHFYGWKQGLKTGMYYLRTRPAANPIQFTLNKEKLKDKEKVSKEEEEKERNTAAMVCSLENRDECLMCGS
Procedure: Activity measurements in Table 2 is performed as described below. Briefly, six concentrations of the compounds ranging from 1-100 μM of the compounds are incubated on ice with 2.5 μmol of hRRM1 for 30 minutes. The assay sample was then diluted by a factor of 5, and enzyme activity was assayed in triplicate. […] Activity measurements are based on the qualitative relation between the minimum concentration of compound required to produce inhibit enzyme activity. Potency activities are ranked as either extremely high, very high or significant. These activities are used to determine the activity ranking. Compounds which are found to have extremely high potency are classified as “****” Compounds which are found to have very high potency […] are classified as “***”. Compounds which are found to have significant potency are classified as
In assay buffer, six concentrations of the compounds ranging from 1-100 μM of the compounds are incubated on ice with 2.5 μmol of hRRM1 for 30 minutes. The assay sample was then diluted by a factor of 5, and enzyme activity was assayed in triplicate.
The IC50 are determined using, boronate chromatography. Six concentrations of the RRmod are studied ranging from 1-100 μM. The assay is repeated in triplicate. Data are fitted in GraphPad Prism 6.05 using a sigmoidal dose-response curve.

[1] = test system: normal mobilized peripheral blood progenitor cells; conditions: previously characterized; cited from earlier work
hRRM1 hexamers = target: T2, hRRM1 hexamers (Homo sapiens, UniProt P23921); conditions: cited from earlier work
T2 sequence (P23921 1-792): T1 sequence (P23921 1-792)

Activity (hRRM1) | SMILES | other results
*** | Oc1ccccc1-c1nnc(-c2ccccc2O)o1 | 
*** | COc1ccc(Br)c(-c2nnc(-c3ccccc3O)o2)c1O | 
*** | COc1ccc(-c2ccsc2)c(-c2nnc(-c3ccccc3O)o2)c1O | 
**** | Oc1ccccc1-c1nc(-c2ccccc2Br)no1 | 
*** | Oc1ccccc1-c1nnc(-c2cc(-c3ccccc3)ccc2O)o1 | 
*** | COc1ccc(-c2ccccc2)c(-c2nnc(-c3ccccc3O)o2)c1O | 
*** | Oc1ccccc1-c1nc(-c2ccccc2-c2ccccc2)no1 | 
*** | Oc1ccccc1-c1nc(-c2ccccc2-c2ccsc2)no1 | 
*** | Oc1ccccc1-c1cnc(-c2ccccc2O)s1 | 
*** | COc1ccc(-c2cnc(-c3ccccc3O)s2)cc1 | 
*** | Oc1ccccc1-c1noc(-c2cccs2)n1 | 
**** | Oc1ccccc1-c1noc(-c2cccnc2)n1 | 
**** | Oc1ccccc1-c1nc(-c2cccnc2)no1 | 
**** | c1cncc(-c2noc(-c3cccnc3)n2)c1 | 
*** | c1cncc(-c2noc(-c3cnc4ccccc4c3)n2)c1 | 
*** | c1cncc(-c2noc(-c3ccco3)n2)c1 | 
*** | c1cncc(-c2noc(-c3cccs3)n2)c1 | 
*** | COc1ccccc1-c1noc(-c2ccccc2O)n1 | 
**** | COc1ccccc1-c1nc(-c2ccccc2O)no1 | 
*** | Oc1ccccc1-c1nc(-c2ccccc2OCc2ccccc2)no1 | 
*** | Oc1ccccc1-c1c[nH]c(-c2ccccc2O)n1 | 
*** | Oc1ccccc1-c1cn(-c2ccccc2O)nn1 | 
*** | Oc1ccccc1-c1nnn(-c2ccccc2O)n1 | 
*** | Oc1ccc(Br)cc1-c1nnc(-c2cccnc2)o1 | 
 | O=C(NN=Cc1c(O)ccc2ccccc12)c1ccccc1O [NSAAH, Naphthyl Salicyl Acyl Hydrazone] | cytotoxicity [1]: little measurable cytotoxicity
 | Nc1nc(Cl)nc2c1ncn2[C@@H]1O[C@H](CO)[C@@H](O)[C@@H]1F [clofarabine, 2′-fluro-2′-deoxyarabinofuranosyl-2-chloroadenine] | binding affinity (hRRM1 hexamers): nanomolar affinity
